From patent US20110230481A2, “DERIVATIVES OF TETRABROMOBENZIMIDAZOLE, A PROCESS FOR THE PREPARATION THEREOF, A PHARMACEUTICAL COMPOSITION COMPRISING THE SAME, A METHOD OF USING THE SAME, A METHOD FOR MODULATING OR REGULATING SERINE/THREONINE KINASES, AND SERINE/THREONINE KINASES MODULATING AGENT” (SELVITA S.A., priority 2009, published 2011)

Experiments:
Test in all cases: KINOMEscan Max
Format in all cases: binding
NEK1 = NEK1 (Homo sapiens, UniProt Q96PY6)
In short: (§1)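 Steps: mix DNA-tagged kinase, immobilized active-site ligand and compound; let compound compete with ligand for the kinase; quantify the kinase retained by qPCR on its DNA tag.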

PCTK3 = PCTK3 (Homo sapiens, UniProt Q07002)
In short: as §1

IKK-beta = molecular target: T1, IKK-beta (Homo sapiens, UniProt O14920)
T1 construct: DNA tag (qPCR read-out)
In short: as §1

EPHB4 = molecular target: T2, EPHB4 (Homo sapiens, UniProt P54760)
T2 construct: purchased Ambit (KINOMEscan Max panel service)
In short: as §1

PKNB(M.tuberculosis) = PKNB(M.tuberculosis) (Mycobacterium tuberculosis, UniProt P9WI81)
MTOR = MTOR (Homo sapiens, UniProt P42345)
In short: as §1

HIPK2 = molecular target: T3, HIPK2 (Homo sapiens, UniProt Q9H2X6)
T3 construct: DNA tag (qPCR read-out); purchased Ambit Kinomescan
In short: as §1

CTK = CTK (Homo sapiens, UniProt P42679)
In short: as §1

KIT(V559D) = molecular target: T4, KIT(V559D) (Homo sapiens, UniProt P10721, V559D)
T4 construct: purchased Ambit Kinomescan (contract screening)
In short: as §1

PAK2 = molecular target: T5, PAK2 (Homo sapiens, UniProt Q13177)
T5 construct: purchased Ambit (KINOMEscan Max service)
In short: as §1

AURKC = molecular target: T6, AURKC (Homo sapiens, UniProt Q9UQB9)
T6 construct: purchased Ambit (KINOMEscan Max service)
In short: as §1

ZAP70 = molecular target: T7, ZAP70 (Homo sapiens, UniProt P43403)
T7 construct: purchased Ambit Kinomescan (contract screening service)
In short: as §1

FGFR1 = molecular target: T8, FGFR1 (Homo sapiens, UniProt P11362)
T8 construct: purchased Ambit Kinomescan (contract panel, KINOMEscan Max)
In short: as §1

TNNI3K = molecular target: T9, TNNI3K (Homo sapiens, UniProt Q59H18)
T9 construct: purchased Ambit Kinomescan (contract screening service)
In short: as §1

ACVR2A = molecular target: T10, ACVR2A (Homo sapiens, UniProt P27037)
T10 construct: DNA tag (qPCR label); purchased Ambit Kinomescan (contract screening)
In short: as §1

RIPK2 = molecular target: T11, RIPK2 (Homo sapiens, UniProt O43353)
T11 construct: DNA tag (qPCR read-out)
In short: as §1

YSK1 = molecular target: T12, YSK1 (Homo sapiens, UniProt O00506)
T12 construct: purchased Ambit Kinomescan (contract screening service)
In short: as §1

MST3 = MST3 (Homo sapiens, UniProt Q9Y6E0); conditions: 1 μM
In short: as §1

MAP4K5 = MAP4K5 (Homo sapiens, UniProt Q9Y4K4)
In short: as §1

MAP4K3 = molecular target: T13, MAP4K3 (Homo sapiens, UniProt Q8IVH8); conditions: 1 μM
T13 construct: purchased Ambit (KINOMEscan Max service)
In short: as §1

AMPK-alpha1 = molecular target: T14, AMPK-alpha1 (Homo sapiens, UniProt Q13131)
T14 construct: DNA tag (qPCR label); purchased Ambit Kinomescan (contract screening)
In short: as §1

[1] = molecular target: ABL1(T315I)-nonphosphorylated (Homo sapiens, UniProt P00519, T315I)
In short: as §1

EPHA6 = molecular target: T15, EPHA6 (Homo sapiens, UniProt Q9UF33)
T15 construct: purchased Ambit (KINOMEscan Max panel service)
In short: as §1

BMX = molecular target: T16, BMX (Homo sapiens, UniProt P51813)
T16 construct: DNA tag (qPCR read-out)
In short: as §1

PIK3C2B = molecular target: T17, PIK3C2B (Homo sapiens, UniProt O00750)
T17 construct: purchased Ambit Kinomescan (contract screening)
In short: as §1

BRAF(V600E) = BRAF(V600E) (Homo sapiens, UniProt P15056, V600E)
In short: as §1

LRRK2(G2019S) = molecular target: T18, LRRK2(G2019S) (Homo sapiens, UniProt Q5S007, G2019S)
T18 construct: purchased Ambit (KINOMEscan Max service)
In short: as §1

ARK5 = molecular target: T19, ARK5 (Homo sapiens, UniProt O60285); conditions: 1 μM
T19 construct: DNA tag (qPCR label); purchased Ambit Kinomescan (contract screening)
In short: as §1

CAMK1D = molecular target: T20, CAMK1D (Homo sapiens, UniProt Q8IU85)
T20 construct: DNA tag (qPCR label); purchased Ambit Kinomescan (contract screening)
In short: as §1

[2] = molecular target: T21, RPS6KA5(Kin.Dom.2-C-terminal) (Homo sapiens, UniProt O75582)
T21 construct: RPS6KA5(Kin.Dom.2-C-terminal); DNA tag (qPCR read-out)
In short: as §1

EPHA5 = molecular target: T22, EPHA5 (Homo sapiens, UniProt P54756); conditions: 1 μM
T22 construct: purchased Ambit (KINOMEscan Max panel service)
In short: as §1

JNK3 = molecular target: T23, JNK3 (Homo sapiens, UniProt P53779); conditions: 1 μM
T23 construct: purchased Ambit Kinomescan (contract panel)
In short: as §1

CDC2L1 = molecular target: T24, CDC2L1 (Homo sapiens, UniProt P21127)
T24 construct: DNA tag (qPCR label); purchased Ambit Kinomescan (contract screening)
In short: as §1

BIKE = molecular target: T25, BIKE (Homo sapiens, UniProt Q9NSY1)
T25 construct: purchased Ambit (KINOMEscan Max service)
In short: as §1

Sequence of MST3 (Q9Y6E0 whole entry): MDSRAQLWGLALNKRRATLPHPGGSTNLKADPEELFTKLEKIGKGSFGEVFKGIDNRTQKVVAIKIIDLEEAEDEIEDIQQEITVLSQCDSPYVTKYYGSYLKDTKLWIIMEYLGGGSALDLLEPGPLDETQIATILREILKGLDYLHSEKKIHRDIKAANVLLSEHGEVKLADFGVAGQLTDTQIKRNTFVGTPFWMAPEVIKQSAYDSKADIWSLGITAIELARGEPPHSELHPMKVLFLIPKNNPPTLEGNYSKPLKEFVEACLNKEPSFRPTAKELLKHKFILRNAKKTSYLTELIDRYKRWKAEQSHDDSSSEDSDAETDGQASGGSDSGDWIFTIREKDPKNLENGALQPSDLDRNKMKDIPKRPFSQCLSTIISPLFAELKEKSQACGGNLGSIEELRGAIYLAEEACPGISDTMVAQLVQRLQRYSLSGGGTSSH
T6 sequence (Q9UQB9 whole entry): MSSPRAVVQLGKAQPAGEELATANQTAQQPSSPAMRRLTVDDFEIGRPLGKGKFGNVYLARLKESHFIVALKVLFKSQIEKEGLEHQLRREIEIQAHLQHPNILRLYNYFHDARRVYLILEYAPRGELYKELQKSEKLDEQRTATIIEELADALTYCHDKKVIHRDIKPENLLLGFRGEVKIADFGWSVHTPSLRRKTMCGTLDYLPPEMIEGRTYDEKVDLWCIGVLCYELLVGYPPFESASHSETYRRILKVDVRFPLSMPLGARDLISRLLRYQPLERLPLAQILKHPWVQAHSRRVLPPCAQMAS
Sequence of PKNB(M.tuberculosis) (P9WI81 whole entry): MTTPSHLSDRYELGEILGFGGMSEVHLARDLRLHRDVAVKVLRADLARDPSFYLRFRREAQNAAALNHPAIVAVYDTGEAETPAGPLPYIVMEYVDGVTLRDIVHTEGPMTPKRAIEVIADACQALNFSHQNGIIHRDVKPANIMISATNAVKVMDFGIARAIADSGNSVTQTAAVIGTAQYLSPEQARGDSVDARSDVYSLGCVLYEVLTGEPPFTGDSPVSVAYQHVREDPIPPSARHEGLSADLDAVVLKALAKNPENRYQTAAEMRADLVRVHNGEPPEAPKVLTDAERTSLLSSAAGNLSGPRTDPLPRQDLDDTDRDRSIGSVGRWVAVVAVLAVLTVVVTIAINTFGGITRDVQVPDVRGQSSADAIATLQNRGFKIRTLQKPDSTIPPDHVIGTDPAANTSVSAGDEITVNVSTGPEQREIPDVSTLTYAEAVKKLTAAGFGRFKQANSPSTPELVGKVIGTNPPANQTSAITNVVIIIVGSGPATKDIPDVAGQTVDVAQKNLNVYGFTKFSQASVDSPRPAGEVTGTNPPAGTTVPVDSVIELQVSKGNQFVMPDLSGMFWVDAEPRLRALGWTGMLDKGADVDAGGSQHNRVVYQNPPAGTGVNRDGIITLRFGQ
T7 sequence (P43403 whole entry): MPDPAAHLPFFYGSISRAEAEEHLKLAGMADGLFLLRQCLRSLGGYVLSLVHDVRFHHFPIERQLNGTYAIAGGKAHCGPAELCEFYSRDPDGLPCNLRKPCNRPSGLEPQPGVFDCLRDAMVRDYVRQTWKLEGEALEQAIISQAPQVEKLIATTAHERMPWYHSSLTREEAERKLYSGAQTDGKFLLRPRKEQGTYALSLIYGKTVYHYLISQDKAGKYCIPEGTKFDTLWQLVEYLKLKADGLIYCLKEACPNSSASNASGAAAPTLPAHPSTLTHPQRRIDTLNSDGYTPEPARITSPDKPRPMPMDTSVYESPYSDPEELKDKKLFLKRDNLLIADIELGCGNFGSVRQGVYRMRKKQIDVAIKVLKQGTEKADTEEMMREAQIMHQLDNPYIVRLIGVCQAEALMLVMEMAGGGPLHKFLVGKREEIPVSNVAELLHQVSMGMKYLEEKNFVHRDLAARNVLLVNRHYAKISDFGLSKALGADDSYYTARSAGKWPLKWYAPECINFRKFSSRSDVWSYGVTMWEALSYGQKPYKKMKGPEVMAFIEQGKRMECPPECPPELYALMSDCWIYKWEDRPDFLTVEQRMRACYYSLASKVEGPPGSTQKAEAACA
Sequence of PCTK3 (Q07002 whole entry): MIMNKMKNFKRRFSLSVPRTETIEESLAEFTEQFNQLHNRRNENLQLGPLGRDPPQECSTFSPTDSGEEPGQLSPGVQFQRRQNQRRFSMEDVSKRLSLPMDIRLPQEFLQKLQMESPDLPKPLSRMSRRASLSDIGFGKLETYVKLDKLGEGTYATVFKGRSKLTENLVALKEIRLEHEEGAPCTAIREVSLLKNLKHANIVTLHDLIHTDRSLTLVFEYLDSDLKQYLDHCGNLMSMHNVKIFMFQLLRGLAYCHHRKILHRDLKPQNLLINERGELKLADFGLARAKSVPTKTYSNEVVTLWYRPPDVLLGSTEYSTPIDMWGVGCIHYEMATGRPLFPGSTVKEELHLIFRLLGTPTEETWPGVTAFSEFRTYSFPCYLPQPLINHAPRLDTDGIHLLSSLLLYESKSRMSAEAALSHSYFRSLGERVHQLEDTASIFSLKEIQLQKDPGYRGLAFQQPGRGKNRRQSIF
T18 sequence (Q5S007 whole entry G2019S): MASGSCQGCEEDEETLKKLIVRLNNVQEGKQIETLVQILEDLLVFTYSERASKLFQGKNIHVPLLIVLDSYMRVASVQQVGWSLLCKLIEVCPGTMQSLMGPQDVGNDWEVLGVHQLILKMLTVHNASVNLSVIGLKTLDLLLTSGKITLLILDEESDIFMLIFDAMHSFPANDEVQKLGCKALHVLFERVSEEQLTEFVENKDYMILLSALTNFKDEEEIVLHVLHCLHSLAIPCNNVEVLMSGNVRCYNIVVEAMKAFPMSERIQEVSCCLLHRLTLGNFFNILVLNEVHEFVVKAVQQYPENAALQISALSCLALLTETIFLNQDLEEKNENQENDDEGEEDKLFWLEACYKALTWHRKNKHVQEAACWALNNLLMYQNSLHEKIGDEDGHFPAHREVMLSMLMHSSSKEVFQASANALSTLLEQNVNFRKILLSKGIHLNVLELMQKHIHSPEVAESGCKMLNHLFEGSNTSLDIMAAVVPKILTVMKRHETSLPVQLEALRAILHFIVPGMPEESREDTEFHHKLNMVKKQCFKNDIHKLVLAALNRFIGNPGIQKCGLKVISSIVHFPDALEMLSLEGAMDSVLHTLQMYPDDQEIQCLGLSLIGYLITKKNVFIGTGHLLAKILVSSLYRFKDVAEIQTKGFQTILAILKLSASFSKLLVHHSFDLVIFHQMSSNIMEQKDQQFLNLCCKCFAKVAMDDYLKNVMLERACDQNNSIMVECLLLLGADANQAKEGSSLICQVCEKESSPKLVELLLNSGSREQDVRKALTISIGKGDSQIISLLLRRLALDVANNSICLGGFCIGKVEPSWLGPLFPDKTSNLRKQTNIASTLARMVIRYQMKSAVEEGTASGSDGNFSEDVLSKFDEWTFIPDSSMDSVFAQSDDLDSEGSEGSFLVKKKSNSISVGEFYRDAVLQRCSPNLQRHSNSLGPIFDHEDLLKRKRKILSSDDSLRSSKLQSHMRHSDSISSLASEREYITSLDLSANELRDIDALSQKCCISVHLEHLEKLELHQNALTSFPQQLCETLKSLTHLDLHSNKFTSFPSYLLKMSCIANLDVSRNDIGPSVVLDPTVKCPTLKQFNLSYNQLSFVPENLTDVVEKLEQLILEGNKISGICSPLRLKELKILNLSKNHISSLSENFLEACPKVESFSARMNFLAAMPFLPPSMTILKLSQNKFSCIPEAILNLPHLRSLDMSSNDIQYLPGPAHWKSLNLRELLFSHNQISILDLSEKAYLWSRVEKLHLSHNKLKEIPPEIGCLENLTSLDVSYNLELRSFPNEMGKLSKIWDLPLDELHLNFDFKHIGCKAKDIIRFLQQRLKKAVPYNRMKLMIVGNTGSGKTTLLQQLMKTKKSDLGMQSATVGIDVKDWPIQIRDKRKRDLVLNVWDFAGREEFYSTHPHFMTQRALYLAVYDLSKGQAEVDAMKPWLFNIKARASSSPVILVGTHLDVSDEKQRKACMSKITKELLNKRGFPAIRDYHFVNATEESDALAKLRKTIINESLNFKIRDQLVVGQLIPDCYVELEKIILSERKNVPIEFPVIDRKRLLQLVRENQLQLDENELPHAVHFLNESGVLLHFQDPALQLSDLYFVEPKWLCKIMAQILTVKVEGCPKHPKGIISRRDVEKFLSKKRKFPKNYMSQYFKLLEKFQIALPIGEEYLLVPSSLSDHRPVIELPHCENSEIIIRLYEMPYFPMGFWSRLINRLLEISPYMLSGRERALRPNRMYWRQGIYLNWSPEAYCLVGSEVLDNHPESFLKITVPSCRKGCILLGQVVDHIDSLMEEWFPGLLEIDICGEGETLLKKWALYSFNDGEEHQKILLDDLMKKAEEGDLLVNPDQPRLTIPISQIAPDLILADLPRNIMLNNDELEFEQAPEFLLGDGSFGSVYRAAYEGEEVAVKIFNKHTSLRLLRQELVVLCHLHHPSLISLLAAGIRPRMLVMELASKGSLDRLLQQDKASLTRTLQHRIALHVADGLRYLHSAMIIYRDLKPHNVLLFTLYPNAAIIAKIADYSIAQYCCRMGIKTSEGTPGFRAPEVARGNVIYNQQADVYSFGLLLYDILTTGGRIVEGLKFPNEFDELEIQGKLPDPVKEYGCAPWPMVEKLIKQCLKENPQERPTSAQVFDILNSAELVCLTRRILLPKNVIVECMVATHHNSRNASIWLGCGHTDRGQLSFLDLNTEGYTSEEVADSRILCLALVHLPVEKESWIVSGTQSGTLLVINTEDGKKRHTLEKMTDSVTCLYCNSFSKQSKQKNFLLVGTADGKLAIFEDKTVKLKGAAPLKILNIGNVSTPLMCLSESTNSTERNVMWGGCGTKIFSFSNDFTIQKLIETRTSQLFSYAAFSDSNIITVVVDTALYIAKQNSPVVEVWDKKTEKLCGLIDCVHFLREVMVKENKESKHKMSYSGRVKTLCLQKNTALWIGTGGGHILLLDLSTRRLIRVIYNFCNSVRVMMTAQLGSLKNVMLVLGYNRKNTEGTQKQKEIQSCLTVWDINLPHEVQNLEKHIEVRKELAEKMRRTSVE

For `NCCCNc1nc2c(Br)c(Br)c(Br)c(Br)c2[nH]1` [Compound 11, N-(3-aminopropyl)-4,5,6,7-tetrabromo-1H-benzo[d]imidazol-2-amine], the remaining binding at 1 µM (NEK1) was 100%, the remaining binding at 1 µM (PCTK3) was 92% and the remaining binding at 1 µM (IKK-beta) was 56%. It also gave a remaining binding at 1 µM (EPHB4) of 100%, a remaining binding at 1 µM (PKNB(M.tuberculosis)) of 91% and a remaining binding at 1 µM (MTOR) of 100%. It also gave a remaining binding at 1 µM (HIPK2) of 0.8%, a remaining binding at 1 µM (CTK) of 74% and a remaining binding at 1 µM (KIT(V559D)) of 97%. The remaining binding at 1 µM (PAK2) was 64%, the remaining binding at 1 µM (AURKC) was 83% and the remaining binding at 1 µM (ZAP70) was 100%. For the same molecule, the remaining binding at 1 µM (FGFR1) was 100%, the remaining binding at 1 µM (TNNI3K) was 100% and the remaining binding at 1 µM (ACVR2A) was 100%. For the same molecule, the remaining binding at 1 µM (RIPK2) was 100%, the remaining binding at 1 µM (YSK1) was 100% and the “% binding” value (MST3) was 98%. The remaining binding at 1 µM (MAP4K5) was 98%, the “% binding” value (MAP4K3) was 85% and the remaining binding at 1 µM (AMPK-alpha1) was 100%. It also gave a remaining binding at 1 µM [1] of 100%, a remaining binding at 1 µM (EPHA6) of 100% and a remaining binding at 1 µM (BMX) of 88%. For the same molecule, the remaining binding at 1 µM (PIK3C2B) was 96%, the remaining binding at 1 µM (BRAF(V600E)) was 96% and the remaining binding at 1 µM (LRRK2(G2019S)) was 70%. For the same molecule, the “% binding” value (ARK5) was 100%, the remaining binding at 1 µM (CAMK1D) was 100% and the remaining binding at 1 µM [2] was 100%. The “% binding” value (EPHA5) was 100%, the “% binding” value (JNK3) was 100% and the remaining binding at 1 µM (CDC2L1) was 100%. For the same molecule, the remaining binding at 1 µM (BIKE) was 60%.
